The values below are quoted from earlier work in patent US10245278B2 (priority 2013, dated 2019).

The conditions of data set [1]: heart transplant patients; 6 grams per day for several weeks.
The conditions of data set [2]: male subjects; 8 grams in a single administration one or two hours before relations.
For data set [3] the following is noted: even at doses of 9 or 10 grams twice per day.
For data set [4] the following is noted: intermittent claudication; oral 8 grams twice per day for 3 weeks.
For data set [5] the following is noted: menopausal women; oral 14 grams per day for 6 months.
The conditions of data set [6]: angina pectoris or congestive heart failure; oral, at least 6 grams per day for 6 weeks.
For data set [7] the following is noted: slightly hypertensive persons; oral 12 grams per day in three administrations for 4 weeks.

Read-outs that look alike come from different tables or passages of the source.

Take L-arginine aspartate: in data set [1], the “ability to withstand physical effort” value is “same result”. Further, in data set [2], the moderate sexual dysfunction result is listed as “significantly improved their disorder”.

Consider `N=C(N)NCCC[C@H](N)C(=O)O` [arginine, L-arginine], for which the side effects entry in data set [3] is “very few side effects”. For the same molecule, the walking range entry in data set [4] is given as “enabled their walking range to be increased”. In addition, in data set [5], the muscular force result is recorded as “resulted in increasing muscular force”. Besides, in data set [6], the “ability to withstand physical effort” value is given as “improves the ability to withstand physical effort”. Besides, in data set [7], the arterial pressure entry was “reduced the arterial pressure significantly”.
